Assay results taken from patent US20250290074A1, “TARGETED TREATMENT OF SPLICEOPATHY-INDUCED NEUROLOGICAL DISORDERS” (Auttx, LLC, priority 2022, published 2025).
Read-outs that look alike come from different tables or passages of the source.

What was measured:
hnRNP L [1] = experiment: hnRNP L expression in human differentiated myoblasts after ASC treatment; format: cell-based
Text: (§1) Such function of ASC was also found in human osteosarcoma cells (about 10-fold) and multiple disease models, see PCT publication no. WO/2019/236750, which is incorporated by reference herein in its entirety.

hnRNP L [2] = experiment: hnRNP L levels after ASC treatment in SH-SY5Y human neuroblastoma cells; format: cell-based; details: FIG. 14B
Protocol: (§2) FIG. 14 is a gel image showing a comparison of hnRNP L protein levels in rat primary cortical neurons with or without ASC treatments at different doses. The rat neurons were treated with 10^−7 M or 10^−6 M ASC, or not treated as control (“Cont.”), and then lysed for western blot detection of protein expression levels of hnRNP L (the upper panel). The arrow points to hnRNP L protein bands (appears as a triplet). […] FIG. 14B is a gel image showing elevation of hnRNP L levels after ASC treatment in SH-SY5Y human neuroblastoma cells (CLT results).

hnRNP L [3] = experiment: Western blot of hnRNP L protein in rat primary cortical neurons after ASC treatment; format: cell-based; details: 10^−7 M or 10^−6 M ASC, FIG. 14
Protocol: as §2, §1

hnRNP L [4] = details: cited from earlier work; for increase in the levels of hnRNP L: human osteosarcoma cells (U2OS)
cancer = details: literature; cited from earlier work
[5] = cited from earlier work
HNRNPL = details: Gene HNRNPL; cited from earlier work
TDP-43 aggregation = details: iPS cell derived motor neurons, sporadic ALS; Burkhardt et al. 2013; cited from earlier work
[6] = rat, in vivo, po; cited from earlier work
[7] = system: vascular endothelial growth factor (VEGF); details: Jeong J. H. et al. 2011; cited from earlier work
[8] = system: glucose transporter 1 (GLUT-1); details: Jeong J. H. et al. 2011; cited from earlier work
[9] = mouse, in vivo, po; cited from earlier work
[10] = U.S. Pat. No. 3,995,061, cited from earlier work

ascochlorin
increase of hnRNP L expression levels (hnRNP L [1]): about 6 fold | hnRNP L levels (hnRNP L [2]): elevation | hnRNP L expression levels (hnRNP L [3]): increased | increase of hnRNP L levels (hnRNP L [4]; Kang J. H. et al. J Proteome Res. 2006): ~12 × | increase in the levels of hnRNP L (hnRNP L [4]): ≥ 10 fold | increase in the levels of hnRNP L (hnRNP L [4]; listed as ASC): about 10 fold | antitumorigenic / anti-cancer properties (cancer): antitumorigenic properties | toxicity (shown to be non-toxic) ([5]; in vivo): non-toxic

C[C@H]1O[C@@H](O[C@H]2[C@@H](O)C[C@H](O[C@H]3[C@@H](O)C[C@H](O[C@H]4CC[C@@]5(C)[C@H](CC[C@@H]6[C@@H]5C[C@@H](O)[C@]5(C)[C@@H](C7=CC(=O)OC7)CC[C@]65O)C4)O[C@@H]3C)O[C@@H]2C)C[C@H](O)[C@@H]1O [digoxin]
Source (DSigDB signature, association with increased hnRNP L levels) (HNRNPL): D3(UP) | hit in screen for compounds reducing TDP-43 aggregation (TDP-43 aggregation): hits confirmed in dose response assays

COc1c(Cl)c(C)c(C=O)c(O)c1C/C=C(C)/C=C/[C@@]1(C)[C@H](C)CCC(=O)[C@@H]1C [MAC, 4-O-methylascochlorin]
toxicity [6]: low toxicity | expression of VEGF [7]: increases | antitumorigenic / anti-cancer properties (cancer): antitumorigenic properties | expression of GLUT-1 [8]: increases | toxicity [9]: low toxicity | tolerability in clinical trials [10]: well tolerated | toxicity ([10]; administered orally to human): low toxicity | toxicity (LD50) ([5]; IP or oral administration, U.S. Pat. No. 3,995,061, FIGS. 15A and 15B): low toxicity
